Assay results published in patent publication US8592581B2, “Trisubstituted purine derivatives” (Cyclacel Limited, priority 2007, dated 2013).

Columns and labels:
[1] = target: CDK2/cyclin E (Homo sapiens (Human), UniProt P24941); experiment: In-vitro recombinant kinase assay CDK2/cyclin E; format: biochemical; details: Table 2; average of duplicate points; read-out: CDK2/Cyclin E Average IC50
Description: (§1) To evaluate the in-vitro kinase potency of the compounds, they were screened against CDK 2 and CDK9. Kinase assays were performed in 96-well plates using recombinant CDK/cyclins generated at Cyclacel. Ltd Dundee, UK. CDK2 and CDK9 assays were performed in a total volume of 25 μl in assay buffer (25 mM b-glycerophosphate, 20 mM MOPS, 5 mM EGTA, 1 mM DTT and 1 mM NaVO3, pH 7.4), into which were added 2-4 μg of active enzyme with appropriate substrates (purified histone H1 for CDK2/cyclin E, and CDK2/cyclin A, biotinyl-Ahx-(YSPTSPS)4 for CDK9/cyclin T1). […] CDK2 reactions were stopped by addition of 25 μl of 75 mM phosphoric acid, followed by filtration through P81 filterplates (Whatman Polyfiltronics, Kent, UK). For CDK9, the reaction was stopped by addition of 25 μl of 75 mM phosphoric acid, then 5 μl of 10 mg/ml avidin was added to each well and further incubated for 2 min followed by filtration as per CDK2 assay. After washing 3 times with 75 mM orthophosphoric acid, plates were dried, scintillant added and incorporated radioactivity measured in a scintillation counter (TopCount, Packard Instruments, Pangbourne, Berks, UK). Compounds for kinase assay were made up as 10 mM stocks in DMSO and diluted into 10% DMSO in assay buffer.
as §1

[2] = target: CDK9/cyclin T1 (Homo sapiens (Human), UniProt P50750); experiment: In-vitro recombinant kinase assay CDK9/cyclin T1; format: biochemical; details: Table 2; average of duplicate points
CDK9/cyclin T1, sequence (P50750 whole entry, species assumed): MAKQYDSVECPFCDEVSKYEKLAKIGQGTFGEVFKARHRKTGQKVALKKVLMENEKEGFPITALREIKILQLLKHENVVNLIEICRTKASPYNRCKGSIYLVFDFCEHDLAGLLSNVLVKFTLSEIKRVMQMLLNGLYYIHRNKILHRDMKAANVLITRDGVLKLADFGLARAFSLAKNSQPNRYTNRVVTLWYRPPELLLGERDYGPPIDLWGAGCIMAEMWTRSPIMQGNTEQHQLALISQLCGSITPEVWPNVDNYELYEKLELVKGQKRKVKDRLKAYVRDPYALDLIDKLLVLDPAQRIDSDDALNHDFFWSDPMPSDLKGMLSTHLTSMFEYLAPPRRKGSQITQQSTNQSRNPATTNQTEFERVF
CDK9/cyclin T1, sequence (O60563 whole entry partner, species assumed): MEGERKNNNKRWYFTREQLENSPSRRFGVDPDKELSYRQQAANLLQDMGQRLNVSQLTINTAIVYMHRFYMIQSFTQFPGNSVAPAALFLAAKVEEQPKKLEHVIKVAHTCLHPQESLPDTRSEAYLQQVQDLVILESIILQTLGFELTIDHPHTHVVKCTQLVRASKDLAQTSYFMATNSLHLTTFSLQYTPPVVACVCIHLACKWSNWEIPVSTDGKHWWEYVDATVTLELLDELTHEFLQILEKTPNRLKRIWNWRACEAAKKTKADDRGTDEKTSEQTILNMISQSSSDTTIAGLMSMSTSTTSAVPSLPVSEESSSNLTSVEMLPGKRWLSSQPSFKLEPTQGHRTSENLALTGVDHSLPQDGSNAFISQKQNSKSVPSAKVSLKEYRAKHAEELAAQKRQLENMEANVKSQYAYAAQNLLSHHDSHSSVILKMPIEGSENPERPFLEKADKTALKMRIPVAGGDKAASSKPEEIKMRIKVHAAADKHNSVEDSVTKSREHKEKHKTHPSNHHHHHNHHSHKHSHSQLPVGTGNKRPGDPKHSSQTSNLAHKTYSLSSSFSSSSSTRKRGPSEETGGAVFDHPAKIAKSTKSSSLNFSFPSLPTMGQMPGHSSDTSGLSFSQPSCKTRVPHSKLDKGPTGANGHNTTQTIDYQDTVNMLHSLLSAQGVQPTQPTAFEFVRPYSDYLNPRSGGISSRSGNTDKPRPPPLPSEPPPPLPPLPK
Description: as §1, §1

[3] = test system: H460 non-small cell lung cancer (NSCLC) cell line; experiment: Alamar blue cytotoxicity assay in H460 NSCLC tumour cell line; format: cell-based; details: for IC50: H460 cells, 72 hours, average of three independent experiments; for Fold increase in potency: H460 cellular IC50 compared with seliciclib
Description: In order to determine the cellular potency of the compounds, the cytotoxicity of each compound was determined against the H460 non-small cell lung cancer (NSCLC) cell line. Standard cytotoxicity methods were performed as follows: H460 cells were seeded in 96-well plates appropriately for their doubling time (3000 cells per well) in RPMI media containing 10% FCS and incubated overnight at 37° C., 5% CO2. The media was removed and 100 μl fresh media containing increasing concentrations of appropriate compound was added and the cells incubated for 72 hours at 37° C., 5% CO2. A 10% stock of alamar blue (Roche, Lewes, United Kingdom) was prepared in medium and 100 μl added to the cells which were incubated for 2 hours.

CC[C@H](Nc1nc(NCc2ccc(C(F)(F)F)nc2)c2ncn(C(C)C)c2n1)[C@@H](C)O [[11], 2R,3S-3-(9-Isopropyl-6-((6-(trifluoromethyl)pyridine-3-yl)methylamino)-9H-purin-2-ylamino)pentan-2-ol]
IC50 [1]: 40 nM | IC50 [2]: 250 nM | IC50 [3]: 900 nM | Fold increase in potency [3]: 13.3 | IC50 ([3]; Homo sapiens, NCI-H460, 72 h): < 1000 nM

CC[C@H](Nc1nc(NCC2CC2)c2ncn(C(C)C)c2n1)[C@@H](C)O [[7], 2R,3S-3-(6-(Cyclopropylmethylamino)-9-isopropyl-9H-purine-2-ylamino)pentan-2-ol]
IC50 [1]: 40 nM | IC50 [2]: 380 nM | Fold increase in potency [3]: 5.0 | IC50 ([3]; Homo sapiens, NCI-H460, 72 h): 2400 nM

CC[C@H](Nc1nc(NC2CCC2)c2ncn(C(C)C)c2n1)[C@@H](C)O [[8], 2R,3S-3-(6-(Cyclobutylamino)-9-isopropyl-9H-purin-2-ylamino)pentan-2-ol]
IC50 [1]: 160 nM | IC50 [2]: 500 nM | Fold increase in potency [3]: 4.1 | IC50 ([3]; Homo sapiens, NCI-H460, 72 h): 2900 nM

CC[C@H](Nc1nc(NC2CC2)c2ncn(C(C)C)c2n1)[C@@H](C)O [[6]]
IC50 [1]: 50 nM | IC50 [2]: 270 nM | Fold increase in potency [3]: 7.1 | IC50 ([3]; Homo sapiens, NCI-H460, 72 h): 1700 nM

CC[C@H](Nc1nc(NCc2cccnc2)c2ncn(CC3CC3)c2n1)[C@@H](C)O [[5], 2R,3S-3-(9-(Cyclopropylmethyl)-6-(pyridin-3-ylmethylamino)-9H-purin-2-ylamino)pentan-2-ol]
IC50 [1]: 830 nM | IC50 [2]: 7890 nM | Fold increase in potency [3]: 0.3 | IC50 ([3]; Homo sapiens, NCI-H460, 72 h): 34400 nM

CC(C)n1cnc2c(NCc3cccnc3)nc(NC[C@@H](C)O)nc21 [[14], (R)-1-(9-Isopropyl-6-(pyridin-3-ylmethylamino)-9H-purin-2-ylamino)propan-2-ol]
IC50 [1]: 290 nM | IC50 [2]: 6530 nM | Fold increase in potency [3]: 0.7 | IC50 ([3]; Homo sapiens, NCI-H460, 72 h): 16700 nM

CC[C@H](Nc1nc(NCc2cc(C)nc(C)c2)c2ncn(C(C)C)c2n1)[C@@H](C)O [[10], 2R,3S-3-(9-Isopropyl-6-(2,6-dimethylpyridine-4-ylmethylamino)-9H-purin-2-ylamino)pentan-2-ol]
IC50 [1]: 50 nM | IC50 [2]: 1040 nM | Fold increase in potency [3]: 5.0 | IC50 ([3]; Homo sapiens, NCI-H460, 72 h): 2400 nM

CC[C@H](Nc1nc(NCc2ccncc2)c2ncn(C(C)C)c2n1)[C@@H](C)O [[9], 2R,3S-3-(9-Isopropyl-6-(pyridine-4-ylmethylamino)-9H-purin-2-ylamino)pentan-2-ol]
IC50 [1]: 40 nM | IC50 [2]: 610 nM | Fold increase in potency [3]: 5.2 | IC50 ([3]; Homo sapiens, NCI-H460, 72 h): 2300 nM

CC[C@H](Nc1nc(NCc2ncccc2C)c2ncn(C(C)C)c2n1)[C@@H](C)O [[13], 2R,3S-3-(9-Isopropyl-6-((3-methylpyridin-2-yl)methylamino)-9H-purin-2-ylamino)pentan-2-ol]
IC50 [1]: 770 nM | IC50 [2]: 5840 nM | Fold increase in potency [3]: 0.6 | IC50 ([3]; Homo sapiens, NCI-H460, 72 h): 19400 nM

CC[C@H](Nc1nc(NCc2cccc(C)n2)c2ncn(C(C)C)c2n1)[C@@H](C)O [[12], 2R,3S-3-(9-Isopropyl-6-((6-methylpyridin-2-yl)methylamino)-9H-purin-2-ylamino)pentan-2-ol]
IC50 [1]: 50 nM | IC50 [2]: 2040 nM | Fold increase in potency [3]: 1.7 | IC50 ([3]; Homo sapiens, NCI-H460, 72 h): 7200 nM

CCC(Nc1nc(NCc2cccnc2)c2ncn(C(C)C)c2n1)C(O)C(F)(F)F (stereo not shown) [[16], 1,1,1-Trifluoro-3-(9-isopropyl-6-(pyridin-3-ylmethylamino)-9H-purin-2-ylamino)pentan-2-ol]
IC50 [1]: 90 nM | IC50 [2]: 2140 nM | Fold increase in potency [3]: 2.9 | IC50 ([3]; Homo sapiens, NCI-H460, 72 h): 4100 nM

CC(C)n1cnc2c(NCc3cccnc3)nc(NCC(O)C(F)(F)F)nc21 (stereo not shown) [[15], 1,1,1-Trifluoro-3-(9-isopropyl-6-(pyridin-3-ylmethylamino)-9H-purin-2-ylamino)propan-2-ol]
IC50 [1]: 570 nM | IC50 [2]: 7400 nM | Fold increase in potency [3]: 0.6 | IC50 ([3]; Homo sapiens, NCI-H460, 72 h): 20300 nM
